One assay concerns the target T1, IDH2 R172K (Homo sapiens, UniProt P48735, R172K).
T1 sequence (P48735 40-452 R172K): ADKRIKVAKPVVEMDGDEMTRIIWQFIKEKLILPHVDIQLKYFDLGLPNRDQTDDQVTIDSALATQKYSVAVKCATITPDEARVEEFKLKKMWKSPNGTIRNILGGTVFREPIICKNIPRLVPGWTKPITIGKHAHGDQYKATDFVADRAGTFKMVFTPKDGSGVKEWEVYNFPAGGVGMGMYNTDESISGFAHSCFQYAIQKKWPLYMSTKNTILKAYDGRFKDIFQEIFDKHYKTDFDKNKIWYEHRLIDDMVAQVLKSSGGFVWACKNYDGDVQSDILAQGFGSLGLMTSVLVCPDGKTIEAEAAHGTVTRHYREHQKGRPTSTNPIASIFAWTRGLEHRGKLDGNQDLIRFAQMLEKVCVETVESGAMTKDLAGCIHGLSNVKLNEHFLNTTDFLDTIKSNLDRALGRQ
Nature of the assay: IDH2 R172K enzymatic assay (NADPH cofactor depletion, diaphorase/resazurin readout). Format: biochemical. The conditions noted are these: read-out: Enz R172K. How it is done:
Compounds are assayed for IDH2 R172K inhibitory activity through a cofactor depletion assay. […] The reaction is terminated by the addition of a second enzyme, diaphorase, and a corresponding substrate, resazurin. Diaphorase reduces resazurin to the highly fluorescent resorufin with the concomitant oxidation of NADPH to NADP, both halting the IDH2 reaction by depleting the available cofactor pool and facilitating quantitation of the amount of cofactor remaining after a specific time period through quantitative production of an easily detected fluorophore.
The test compound is then incubated for one hour at room temperature with the enzyme; before starting the IDH2 reaction with the addition of 10 μl of substrate mix containing 50 μM NADPH and 6.3 mM α-KG in the buffer described above. After a further one hour of incubation at room temperature, the reaction is halted and the remaining NADPH measured through conversion of resazurin to resorufin by the addition of 25 μl Stop Mix (36 μg/ml diaphorase enzyme and 60 μM resazurin; in buffer).

Another assay addresses T2, IDH2 R140Q (Homo sapiens, UniProt P48735, R140Q).
T2 sequence (P48735 40-452 R140Q): T1 sequence (P48735 40-452 R172K) with R101Q, K133R
The experiment in a line: IDH2 R140Q enzymatic assay (cofactor depletion, similar format). Format: biochemical. As to conditions: read-out: Enz R140Q.

Assay [1] concerns U87MG pLVX-IDH2 R140Q-neo cells. The experiment in a line: U87MG pLVX-IDH2 R140Q-neo cell based assay, 2-HG in media by LC-MS at 48 hours. The conditions noted are these: for IC50: Homo sapiens, U-87 MG. The procedure, abridged: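 U87MG cells stably expressing IDH2 R140Q were seeded overnight, then exposed to compound at 0.2% final DMSO at 37 °C, 5% CO2. 2-HG in the medium was quantified by LC-MS at 48 h. Growth inhibition was read by CellTiter-Glo luminescence at 72 h.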

Numbering of substitutions follows the chain as printed. Where only a bound is given, the exact number is not on record here.

For `Cc1ccccc1-c1nc(Nc2ccccc2)nc(NC(C)C)n1` [Compound 123], the results for the IC50 (on IDH2 R172K; at IDH2 R140Q; in assay [1]) were 100 to 1000 nM, less than 100 nM and 100 to 1000 nM, respectively.
Consider `FC(F)(F)CNc1nc(Nc2ccccc2)nc(-c2ccccc2)n1` [Compound 126], for which the results for the IC50 (on IDH2 R172K; at IDH2 R140Q; in assay [1]) were 100 to 1000 nM, less than 100 nM and less than 100 nM, respectively.
In the case of `CC(C)Nc1nc(Nc2ccccc2)nc(-c2cccc(C#N)c2)n1` [Compound 128], the IC50 on IDH2 R172K lay within 1000 to 10000 nM; at IDH2 R140Q it was 100 to 1000 nM; in assay [1], 1000 to 10000 nM.
On to `CC(C)Nc1nc(Nc2ccncc2)nc(-c2ccccc2)n1` [Compound 129, N^2-isopropyl-6-phenyl-N^4-(pyridin-4-yl)-1,3,5-triazine-2,4-diamine], for which the IC50 on IDH2 R172K was 1000 to 10000 nM; on IDH2 R140Q, less than 100 nM; in assay [1], 100 to 1000 nM.
The like results for `CC(C)Nc1nc(Nc2cccc(C#N)c2)nc(-c2ccccc2)n1` [Compound 130] were, in that order, 100 to 1000 nM, less than 100 nM and less than 100 nM.
The corresponding values for `CC(C)Nc1nc(Nc2ccc(F)cc2)nc(-c2ccccc2)n1` [Compound 132] are 100 to 1000 nM, less than 100 nM and less than 100 nM.
Turning to `c1ccc(Nc2nc(NCc3ccccn3)nc(-c3ccccc3)n2)cc1` [Compound 135], the IC50 was greater than 10000 nM at IDH2 R172K, 100 to 1000 nM on IDH2 R140Q and 1000 to 10000 nM in assay [1].
The like results for `CC(C)Nc1nc(Nc2ccccc2)nc(-c2ccccc2C#N)n1` [Compound 139] were, in that order, 1000 to 10000 nM, less than 100 nM and 100 to 1000 nM.
The like results for `CC(C)Nc1nc(Nc2ccc(F)cc2F)nc(-c2ccccc2)n1` [Compound 140] were, in that order, 1000 to 10000 nM, less than 100 nM and 100 to 1000 nM.
The corresponding values for `CC(C)Nc1nc(Nc2ccc(C#N)cc2)nc(-c2ccccc2)n1` [Compound 141] are 100 to 1000 nM, less than 100 nM and 100 to 1000 nM.
Regarding `CC(C)Nc1nc(Nc2ccc(Cl)cc2)nc(-c2ccccc2)n1` [Compound 143], the IC50 is 100 to 1000 nM on IDH2 R172K, less than 100 nM at IDH2 R140Q and 100 to 1000 nM in assay [1].
On to `Cc1ccccc1Nc1nc(NC(C)C)nc(-c2ccccc2)n1` [Compound 147], for which the IC50 at IDH2 R172K lay in the range of 1000 to 10000 nM; at IDH2 R140Q it was 100 to 1000 nM; in assay [1], 100 to 1000 nM.
Turning to `CC(C)Nc1nc(Nc2ccccc2)nc(-c2ccn[nH]2)n1` [Compound 148], the figures for the IC50 (at IDH2 R172K; at IDH2 R140Q; in assay [1]) were 1000 to 10000 nM, 100 to 1000 nM and 100 to 1000 nM, respectively.
`CC(C)Nc1nc(Nc2cccc(Cl)c2)nc(-c2ccccc2)n1` [Compound 149]: the IC50 (on IDH2 R172K; on IDH2 R140Q; in assay [1]) was less than 100 nM each time.
Consider `CC(C)Nc1nc(Nc2cccc(CO)c2)nc(-c2ccccc2)n1` [Compound 150], for which the IC50 on IDH2 R172K lay within 1000 to 10000 nM; on IDH2 R140Q, 100 to 1000 nM; in assay [1], 100 to 1000 nM.
Turning to `CC(C)Nc1nc(Nc2ccccc2)nc(-c2cccc(S(C)(=O)=O)c2)n1` [Compound 151], the IC50 (on IDH2 R172K; on IDH2 R140Q; in assay [1]) was 100 to 1000 nM throughout.
Take `CC(C)Nc1nc(Nc2cccnc2)nc(-c2ccccc2)n1` [Compound 154]: the IC50 on IDH2 R172K was 1000 to 10000 nM; at IDH2 R140Q, less than 100 nM; in assay [1], 100 to 1000 nM.
Turning to `CC(C)Nc1nc(Nc2ccccn2)nc(-c2ccccc2)n1` [Compound 155], the IC50 on IDH2 R172K was greater than 10000 nM; at IDH2 R140Q, 100 to 1000 nM. Moreover, the “Cell R140Q” value in assay [1] is “No Fit”.
In the case of `CC(C)Nc1nc(Nc2ccccc2)nc(-c2ccncc2)n1` [Compound 156], the IC50 on IDH2 R172K is 1000 to 10000 nM; at IDH2 R140Q it was 100 to 1000 nM; in assay [1] it was 100 to 1000 nM.
With `CC(C)Nc1nc(Nc2ccccc2)nc(-c2cccc(Cl)c2)n1` [Compound 158], the IC50 at IDH2 R172K was 100 to 1000 nM; on IDH2 R140Q, less than 100 nM; in assay [1], 100 to 1000 nM.
Consider `COc1ccc(Nc2nc(NC(C)C)nc(-c3ccccc3)n2)cc1` [Compound 159], for which the IC50 at IDH2 R172K was 1000 to 10000 nM; at IDH2 R140Q, 100 to 1000 nM; in assay [1], 100 to 1000 nM.
With `CC(C)OC(=O)Nc1nc(Nc2ccccc2)nc(-c2ccccc2)n1` [Compound 160, isopropyl 4-phenyl-6-(phenylamino)-1,3,5-triazin-2-ylcarbamate], the IC50 at IDH2 R172K is 100 to 1000 nM; at IDH2 R140Q, less than 100 nM; in assay [1], 100 to 1000 nM.
With `CC(C)Nc1nc(Nc2ccccc2Cl)nc(-c2ccccc2)n1` [Compound 162], the IC50 fell in the range of 1000 to 10000 nM on IDH2 R172K, 100 to 1000 nM on IDH2 R140Q and 1000 to 10000 nM in assay [1].
For the compound `CC(C)C(=O)Nc1nc(Nc2ccccc2)nc(-c2ccccc2)n1` [Compound 167], the IC50 is 100 to 1000 nM at IDH2 R172K, less than 100 nM at IDH2 R140Q and less than 100 nM in assay [1].
Consider `c1ccc(Nc2nc(NC3CCOCC3)nc(-c3ccccc3)n2)cc1` [Compound 168], for which the IC50 on IDH2 R172K is 100 to 1000 nM; at IDH2 R140Q, less than 100 nM; in assay [1], less than 100 nM.
As to `CC(C)Nc1nc(Nc2ccon2)nc(-c2ccccc2)n1` [Compound 169], the IC50 on IDH2 R172K was 100 to 1000 nM; on IDH2 R140Q, less than 100 nM; in assay [1], 100 to 1000 nM.
For `CC(C)Nc1nc(NC(=O)Cc2ccccc2)nc(-c2ccccc2)n1` [Compound 170], the IC50 at IDH2 R172K fell in the range of 100 to 1000 nM; on IDH2 R140Q it was 100 to 1000 nM; in assay [1], 1000 to 10000 nM.
Consider `O=C(Cc1ccccc1)Nc1nc(Nc2ccccc2)nc(-c2ccccc2)n1` [Compound 172], for which the IC50 on IDH2 R172K was 100 to 1000 nM; at IDH2 R140Q, less than 100 nM; in assay [1], 100 to 1000 nM.
With `Clc1cccc(Nc2nc(NC3CCOCC3)nc(-c3ccccc3)n2)c1` [Compound 173], the IC50 (at IDH2 R172K; on IDH2 R140Q; in assay [1]) was less than 100 nM in each case.
On to `c1ccc(Nc2nc(NC3CCOC3)nc(-c3ccccc3)n2)cc1` (stereo not drawn) [Compound 174, N^2,6-diphenyl-N^4-(tetrahydrofuran-3-yl)-1,3,5-triazine-2,4-diamine], for which the IC50 was 100 to 1000 nM on IDH2 R172K, less than 100 nM at IDH2 R140Q and less than 100 nM in assay [1].
As for `c1ccc(Nc2nc(NC3COC3)nc(-c3ccccc3)n2)cc1` [Compound 175, N^2-(oxetan-3-yl)-N^4,6-diphenyl-1,3,5-triazine-2,4-diamine], the IC50 was 100 to 1000 nM at IDH2 R172K, less than 100 nM on IDH2 R140Q and less than 100 nM in assay [1].
With `CC1(Nc2nc(Nc3ccccc3)nc(-c3ccccc3)n2)COC1` [Compound 176, N^2-(3-methyloxetan-3-yl)-N^4,6-diphenyl-1,3,5-triazine-2,4-diamine], the figures for the IC50 (at IDH2 R172K; at IDH2 R140Q; in assay [1]) were 100 to 1000 nM, less than 100 nM and 100 to 1000 nM, respectively.
In the case of `CC(C)Nc1nc(Nc2cccc(S(=O)(=O)N(C)C)c2)nc(-c2ccccc2)n1` [Compound 177, 3-(4-(isopropylamino)-6-phenyl-1,3,5-triazin-2-ylamino)-N,N-dimethylbenzenesulfonamide], the results for the IC50 (on IDH2 R172K; on IDH2 R140Q; in assay [1]) were 100 to 1000 nM, less than 100 nM and less than 100 nM, respectively.
For `CC(C)Nc1nc(Nc2cccc(F)c2)nc(-c2ccccc2)n1` [Compound 178, N-(3-Fluoro-phenyl)-N′-isopropyl-6-phenyl-[1,3,5]triazine-2,4-diamine], the IC50 (on IDH2 R172K; on IDH2 R140Q; in assay [1]) was less than 100 nM throughout.
`CC(C)COC(=O)Nc1nc(Nc2ccccc2)nc(-c2ccccc2)n1` [Compound 179, Isobutyl 4-phenyl-6-(phenyl-amino)-1,3,5-triazin-2-ylcarbamate]: the IC50 (on IDH2 R172K; on IDH2 R140Q; in assay [1]) was less than 100 nM throughout.

Values taken from patent publication US9512107B2, “Therapeutically active compositions and their methods of use” (Agios Pharmaceuticals, Inc., priority 2012, dated 2016).
